Active and inactive are the calls of the source. No stated cut-off is given here; in the data, actives have a measured IC50 and inactives only a lower limit.
Each molecule was assayed against Envelope glycoprotein gp160 (Human immunodeficiency virus 1, UniProt Q6QLK5) (assay: cell-free HIV fusion peptide-binding blockers – biochemical, uHTS, fluorescence dequenching, […] (AID 1986)).
Envelope glycoprotein gp160, sequence (Q6QLK5 whole entry, the tested form may be a part): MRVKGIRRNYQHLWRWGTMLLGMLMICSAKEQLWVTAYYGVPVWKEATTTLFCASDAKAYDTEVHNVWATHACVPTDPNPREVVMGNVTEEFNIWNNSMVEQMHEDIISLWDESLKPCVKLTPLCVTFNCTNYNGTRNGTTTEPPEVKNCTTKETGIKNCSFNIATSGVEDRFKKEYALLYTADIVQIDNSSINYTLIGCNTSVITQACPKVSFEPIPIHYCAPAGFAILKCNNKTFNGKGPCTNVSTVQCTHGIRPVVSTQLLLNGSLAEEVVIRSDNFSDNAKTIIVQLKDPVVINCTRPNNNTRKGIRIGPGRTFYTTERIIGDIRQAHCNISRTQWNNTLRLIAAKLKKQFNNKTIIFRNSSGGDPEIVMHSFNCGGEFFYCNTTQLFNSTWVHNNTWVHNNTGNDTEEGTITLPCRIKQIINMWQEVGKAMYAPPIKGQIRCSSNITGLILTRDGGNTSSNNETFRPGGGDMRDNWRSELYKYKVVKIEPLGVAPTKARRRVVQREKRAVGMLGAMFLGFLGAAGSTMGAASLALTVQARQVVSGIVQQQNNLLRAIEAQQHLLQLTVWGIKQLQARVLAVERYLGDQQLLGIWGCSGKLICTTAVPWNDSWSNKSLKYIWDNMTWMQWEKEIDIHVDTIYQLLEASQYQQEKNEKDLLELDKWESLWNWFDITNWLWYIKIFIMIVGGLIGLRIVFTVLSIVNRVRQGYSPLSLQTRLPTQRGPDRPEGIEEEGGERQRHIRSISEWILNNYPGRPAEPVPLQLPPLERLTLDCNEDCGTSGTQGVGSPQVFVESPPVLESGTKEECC
For `COc1ccc(-c2nn(-c3ccccc3)cc2/C=C2/SC(=S)N(CCCC(=O)O)C2=O)c(C)c1`, the IC50 was 20.2 µM (active).
With `O=C(O)c1ccccc1N=Nc1c(O)[nH]c2ccc([N+](=O)[O-])cc12` the IC50 was 23.3 µM (active).
For `CCc1ccc(NC2=NC(=O)/C(=C/c3cc(Br)c(OCC(=O)O)c(OC)c3)S2)cc1`, the IC50 was 14.6 µM (active).
For `CCS(=O)(=O)C1=NN2C(=N)/C(=C\c3ccc(OS(=O)(=O)c4ccccc4)c(OC)c3)C(=O)N=C2S1`, the IC50 was 17.8 µM (active).
For `O=C(Nc1ccccc1Cc1ccccc1)c1ccccc1NS(=O)(=O)c1ccc(Cl)s1`, the IC50 was 17 µM (active).

Reference: ChEMBL document CHEMBL1201862, “PubChem BioAssay data set” (2004)
